The record followed here is patent US9403842B2, “Prasugrel in non-crystalline form and pharmaceutical composition thereof” (ratiopharm GmbH, priority 2009, dated 2016).

This series in a line: pH-dependent degradation. It is filed as physicochemical. The conditions noted are these: pH values of <3, after just 2 hours. On the procedure:
At pH values of <3, degradation of more than 1% is observed after just 2 hours. This restricts the possible excipients used in the production of pharmaceutical formulations.

Regarding `CC(=O)Oc1cc2c(s1)CCN(C(C(=O)C1CC1)c1ccccc1F)C2` (stereo not drawn) [prasugrel, 2-acetoxy-5-(α-cyclopropylcarbonyl-2-fluorobenzyl)-4,5,6,7-tetrahydrothieno[3,2-c]pyridine], the degradation result was “more than 1%”.
